Data reported in patent publication US20050239061A1, “Identification and use of effectors and allosteric molecules for the alteration of gene expression” (priority 2000, published 2005).
Like-named read-outs stand apart in the source and are kept apart here.

B1: TA-50: theophylline-responsive self-cleaving hammerhead ribozyme sequence selected after seven cycles, SEQ ID NO:5 (nucleic acid)
chain: GGGAGAGGGAUCCAGCUGACGAGUACUGAAUACCAGCCGAAAGGCCCUUGGCAGGUUUGGUGAAACGCCUUCGGCGUCCUGGAUUAGAACUUC
modifications: listed as RNA, chemistry not given here

Experiments:
[1] = cited from earlier work
[2] = in vivo; cited from earlier work
[3] = cited from earlier work; for Biodistribution: in vivo
[4] = biological target: T1, HIV RT (Human immunodeficiency virus type 1 group M subtype B, UniProt P04585); conditions: cited from earlier work
T1 construct: Atevirdine/nonnucleoside reverse

[5] = test system: TA-50 ribozyme; experiment: Theophylline-dependent self-cleavage of ribozyme TA-50; format: biochemical; conditions: FIG. 9

Molecule | Bioavailability ([1]; oral) | Toxicity/Drug Interactions [2] | Biodistribution [3] | also measured
CSc1nc2cc(Cl)c(Oc3cccc(Cl)c3Cl)cc2[nH]1 [Triclabendazole] | Oral | Low/none in humans | Liver/metabolism important | 
COc1ccc2c(c1)N(C(=O)OC(C)C)[C@@H](CSC)C(=S)N2 [Talviraline] |  |  | Wide | Other Pharmacology [4]: Viral target, no other known activity
O=C1NC(=O)C(Cc2ccc3cc(OCc4ccccc4F)ccc3c2)S1 (stereo not shown) [MCC-555] |  | Liver toxicity (controversial) | Muscle and adipose | Bioavailability ([1]; in vivo, po): Oral
CN1CCN(c2cc3c(cc2F)c(=O)c(C(=O)O)cn3-c2ccc(F)cn2)CC1.Cl [Fandofloxacin] | Orally absorbed | Well tolerated, v. low phototoxicity | Good organ distribution including muscle | 
Cc1oc(-c2ccccc2)nc1CCOc1ccc(C[C@H](Nc2ccccc2C(=O)c2ccccc2)C(=O)O)cc1 [GW-2570] |  |  | Muscle and adipose | Bioavailability ([1]; in vivo, po): Oral
CCNc1cccnc1N1CCN(C(=O)c2cc3cc(OC)ccc3[nH]2)CC1 [Atevirdine] | well absorbed orally |  | Widely distributed, crosses blood-brain | time to peak serum ([1]; oral): 30 to 60 min; Other Pharmacology [4]: Viral target, no other known activity; maximum concentration of drug in serum ([3]; oral delivery): delivery): 7.3 uM
Cl.O=C(O)c1cn(C2CC2)c2c(Cl)c(N3C[C@@H]4CCCN[C@@H]4C3)c(F)cc2c1=O [Bay-y-3118] | Orally absorbed | No abnormal findings in humans |  | Half life ([1]; oral): 11.4 h; Tmax ([1]; oral): 1.3 h
Cn1c(=O)c2[nH]cnc2n(C)c1=O [theophylline] |  | acceptable |  | theophylline concentration giving highest cleavage activity of TA-50 ribozyme [5]: 10 to 50 µM
B1 |  |  |  | self-cleaving ability ([5]; presence of theophylline): strongly dependent on the presence of theophylline
